Test results taken from patent US7319109B2, “Farnesoid X receptor agonists” (Smith Kline Beecham Corporation, priority 2002, dated 2008).

The compounds below were run against T1, Human FXRα Ligand Binding Domain (FXRα LBD) (Homo sapiens, UniProt Q96RI1) (assay: FXR Affinity Binding Assay: ligand mediated cofactor peptide (SRC-1 LCD2, 676-700) interaction, time resolved fluorescence). Details: FXRα LBD-APC / europium labeled SRC-1 peptide, TRF signal, at least 2 hours at room temperature; read-out: Activity (pEC50) (converted).
T1 construct: polyhistidine (N); made in house; host or cells: E. coli BL21 (DE3), pRSET-A vector
T1 sequence (Q96RI1 222-472 isoform Q96RI1-2): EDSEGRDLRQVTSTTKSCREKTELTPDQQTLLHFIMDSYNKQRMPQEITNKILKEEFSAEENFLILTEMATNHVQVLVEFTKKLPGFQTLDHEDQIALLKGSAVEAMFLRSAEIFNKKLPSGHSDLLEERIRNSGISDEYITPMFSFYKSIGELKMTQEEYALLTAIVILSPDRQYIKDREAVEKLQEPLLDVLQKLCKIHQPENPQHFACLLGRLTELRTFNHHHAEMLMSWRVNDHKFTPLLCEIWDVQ

EC50	SMILES
1.02 to 10 µM	CCN(c1ccc(OCc2c(-c3c(Cl)cccc3Cl)noc2C(C)C)cc1)S(=O)(=O)c1ccc(C(=O)OC)cc1 [Example 61, Methyl 4-{[(4-{[3-(2,6-dichlorophenyl)-5-isopropylisoxazol-4-yl]methoxy}phenyl)-(ethyl)amino]sulfonyl}benzoate]
0.102 to 1 µM	CC(C)c1onc(-c2ccccc2OC(F)(F)F)c1COc1ccc(CNc2cccc(C(=O)O)c2)c(Cl)c1 [Example 96, 3-{[2-Chloro-4-({5-isopropyl-3-[2-(trifluoromethoxy)phenyl]-4-isoxazolyl}methoxy)benzyl]amino}benzoic acid]
< 0.1 µM	CCN(c1ccc(OCc2c(-c3c(Cl)cccc3Cl)noc2C(C)C)cc1Cl)S(=O)(=O)c1cccc(C(=O)O)c1 [Example 50]
0.102 to 1 µM	COC(=O)c1cccc(OCc2ccc(OCc3c(-c4c(Cl)cccc4Cl)noc3C(C)C)cc2Cl)c1 [Example 76, Methyl 3-[(2-chloro-4-{[3-(2,6-dichlorophenyl)-5-isopropylisoxazol-4-yl]methoxy}benzyl)-oxy]benzoate]
0.102 to 1 µM	Cc1cc(OCc2c(-c3ccccc3OC(F)(F)F)noc2C(C)C)ccc1CSc1cccc(C(=O)O)c1 [Example 91, 3-{[4-({5-Isopropyl-3-[2-(trifluoromethoxy)phenyl]isoxazol-4-yl}methoxy)-2-methyl-benzyl]thio}benzoic acid]
0.102 to 1 µM	CC(C)c1onc(-c2c(Cl)cccc2Cl)c1COc1ccc(N(C)S(=O)(=O)c2cccc(C(=O)O)c2)cc1 [Example 49, 3-{[(4-{[3-(2,6-Dichlorophenyl)-5-isopropylisoxazol-4-yl]methoxy}phenyl)(methyl)-amino]sulfonyl}benzoic acid]

The next lines start with the compound.

SMILES	EC50
CCN(c1ccc(OCc2c(-c3c(Cl)cccc3Cl)noc2C(C)C)cc1Cl)S(=O)(=O)c1cccc(C(=O)OC)c1 [Example 43, Methyl 3-{[(2-chloro-4-{[3-(2,6-dichlorophenyl)-5-isopropylisoxazol-4-yl]methoxy}-phenyl)(ethyl)amino]sulfonyl}benzoate]	1.02 to 10 µM
COC(=O)c1ccc(C(=O)Nc2ccc(OCc3c(-c4c(Cl)cccc4Cl)noc3C(C)C)cc2Cl)cc1 [Example 25, Methyl 4-[(2-chloro-4-{[3-(2,6-dichlorophenyl)-5-isopropyl-4-isoxazolyl]methoxy}anilino)carbonyl]benzoate]	0.102 to 1 µM
CCN(c1ccc(OCc2c(-c3c(Cl)cccc3Cl)noc2C(C)C)cc1C)S(=O)(=O)c1cccc(C(=O)OC)c1 [Example 44, Methyl 3-{[(4-{[3-(2,6-dichlorophenyl)-5-isopropylisoxazol-4-yl]methoxy}-2-methyl-phenyl)(ethyl)amino]sulfonyl}benzoate]	0.102 to 1 µM
COC(=O)c1cccc(S(=O)(=O)N(C)c2ccc(OCc3c(-c4c(Cl)cccc4Cl)noc3C(C)C)cc2)c1 [Example 42, Methyl 3-{[(4-{[3-(2,6-dichlorophenyl)-5-isopropylisoxazol-4-yl]methoxy}phenyl)-(methyl)amino]sulfonyl}benzoate]	0.102 to 1 µM
